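Briefly, cells in 96-well plates were exposed to five compound concentrations for 48 h, and endpoints were estimated by linear interpolation. The concentration for full growth arrest is given as TGI.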
Legend:
Test in all cases: inhibition of tumour cell growth, NCI panel, 48 h
[1] = test system: EKVX NSCLC
[2] = test system: HOP-62 NSCLC
[3] = test system: HOP-92 NSCLC
[4] = test system: HS 578T breast
[5] = test system: KM12 colon
[6] = test system: NCI-H226 lung
[7] = test system: NCI-H23 lung
[8] = test system: NCI-H460 lung
[9] = test system: OVCAR-3 ovarian
[10] = test system: OVCAR-8 ovarian
[11] = test system: PC-3 prostate
[12] = test system: SK-MEL-28 melanoma
[13] = test system: SN12C renal
[14] = test system: SW-620 colon
[15] = test system: U251 CNS
[16] = test system: UACC-257 melanoma
[17] = test system: UACC-62 melanoma
[18] = test system: UO-31 renal
[19] = test system: SNB-75 CNS

Compound	TGI [1] [µM]	TGI [2] [µM]	TGI [3] [µM]	TGI [4] [µM]	TGI [5] [µM]	TGI [6] [µM]	TGI [7] [µM]	TGI [8] [µM]	TGI [9] [µM]	TGI [10] [µM]	TGI [11] [µM]	TGI [12] [µM]	TGI [13] [µM]	TGI [14] [µM]	TGI [15] [µM]	TGI [16] [µM]	TGI [17] [µM]	TGI [18] [µM]	TGI [19] [µM]
CC1=CCC(C)=Nc2nc3ccccc3n21	> 100	> 100	> 100	> 100	> 100	> 100	> 100	> 100	> 100	> 100	> 100	> 100	> 100	> 100	> 100	> 100	> 100	58.9	
O=C(N[C@@H](c1ccccc1)[C@@H](O)C(=O)OCc1ccc([N+](=O)[O-])cc1)c1ccccc1	> 100	> 100	> 100	> 100	> 100	> 100	> 100	> 100	> 100	> 100	> 100		> 100	> 100	> 100	> 100	> 100	> 100	> 100
C=CC1C(OC2OC(CO)C(O)C(O)C2O)OC=C(C(=O)OC)C1CC1CC(=O)CC(CCc2ccc(O)cc2)O1 (stereo not given)	> 100	> 100	> 100	> 100	> 100	> 100	> 100	> 100	> 100	> 100	> 100	> 100	> 100	> 100	> 100	> 100	> 100	> 100	> 100
COC(=O)c1c(C#N)[nH]c(-c2ccsc2)c1C(=O)OC	> 100	> 100	> 100	> 100	> 100	> 100	> 100		> 100	> 100	> 100	> 100	> 100	> 100	> 100	> 100	> 100	> 100	> 100
O=C(NCCCl)N(O)C(=O)Nc1ccccc1	> 100	> 100	> 100	> 100	> 100	> 100	> 100	> 100	> 100	> 100	> 100		> 100	> 100	> 100	> 100	> 100	> 100	> 100
CC1C[C@]2(C)C(=NCCN)Nc3ccccc3[C@@H]2N(C)c2ccccc21 (stereo not given in full)	33	30.6	9.49	38.2	30	30.2	31.4	24	23.7	27.9	26.6	24.3	28.4	35.9		14.8	28.1	23.2	13.2
CCOC(=O)c1c(NC(=O)OC)c(C#N)c2n1CCCCC2	> 100	> 100	> 100	> 100	> 100	> 100	> 100	> 100		> 100	> 100	> 100		> 100	> 100	> 100	> 100	> 100	> 100
CN1CCc2c(sc3ncn(C)c(=N)c23)C1	> 100	> 100	> 100	> 100	> 100	> 100	> 100	> 100	> 100	> 100	> 100	> 100	> 100	> 100	> 100	> 100	> 100		> 100
O=S1(=O)Cc2ccc3c4c2-c2c(ccc5ccc(c-4c25)CS(=O)(=O)C3)C1	> 100	> 100	> 100	> 100	> 100	> 100		> 100	> 100	> 100	> 100	> 100	> 100	> 100	> 100	> 100	> 100	> 100	> 100
N#Cc1[nH]c(=S)[nH]c1N	> 100	> 100	> 100	> 100		> 100	> 100	> 100	> 100	> 100	> 100	> 100	> 100	> 100	> 100	> 100	> 100	> 100	> 100
COc1cc(N(CCC#N)CCC#N)ccc1/C(N=Nc1ccccc1C)=N\NC(=O)c1ccc(C)cc1	> 100	> 100	> 100	> 100	> 100	> 100	> 100	> 100	> 100	> 100	> 100	> 100	> 100	> 100	> 100	> 100	> 100	> 100	
Cc1nn(C(=O)c2ccc(Cl)cc2)c2c1C(/C=C/c1ccccc1)SC(N)=N2 (stereo not given)	> 10	> 10	> 10	> 10	> 10	> 10	> 10	> 10	> 10	> 10	> 10	> 10	> 10	> 10	> 10	> 10	> 10		> 10
COC(=O)[C@]12CCC(C)(C)C[C@H]1[C@H]1C(=O)C=C3[C@@]4(C)C=C(C#N)C(=O)C(C)(C)[C@@H]4CC[C@@]3(C)[C@]1(C)CC2	0.208	0.0547	4.03	2.14	0.159	0.301	0.0392	> 13.5	0.0615	0.0414	0.469		0.187	0.946	0.0744	0.0795	0.0945	1.15	3.62
S=C1SSC2N=CC=CC12 (stereo not given)	> 100		> 100	> 100	33	> 100	> 100	> 100	> 100	> 100	> 100	> 100	> 100	> 100	> 100	> 100	> 100	> 100	> 100
O=C1NC(=O)C(c2c[nH]c3ccccc23)=C1c1cn(C(c2ccccc2)(c2ccccc2)c2ccccc2)cn1	19.4		21.9	68.2	13.5	19.9	30.8	14.6	19.6	28.2	7.24	44.9	20.3	30	15.3	26.6	30.1		22.1
Nc1nc(Cl)c(N)c(NCC2(CO)CCCC2)n1	> 100	> 100	> 100	> 100	> 100	> 100		> 100	> 100	> 100	> 100	> 100	> 100	> 100	> 100	> 100	7.44	> 100	> 100
Cc1cc(C)c2c(c1)C/C(=C\c1ccccc1C(=O)O)C2=O	> 100	> 100	> 100	> 100	> 100	> 100	> 100	26.4	> 100	> 100	> 100	> 100	> 100	> 100	> 100	> 100		> 100	> 100
O=C(/N=C/c1c(O)c2ccccc2oc1=O)Oc1ccccc1	> 100	43.6	79.9	32.1	> 100	44.9	68.5	> 100	44.2	91.9	> 100		51.7	> 100	87.5	92.2	79.7	63.6	68.4
CN(C)c1ccc(/C=N\NC(=O)Nc2cccc3ccccc23)cc1	> 100	33.1	59.5	23.1	> 100	9.06	76	31.8		> 100	35.5	> 100	31.4	> 100	39.5	34.6		51.6	32.3
COc1ccc(-c2nc(-c3cc4c(ccc5ccccc54)oc3=O)cs2)cc1	> 100	> 100	> 100	> 100	> 100	> 100		> 100			> 100	> 100	> 100	> 100		> 100	> 100	> 100	> 100

From PubChem BioAssay (NCI)
